18 molecules from patent US6911445B2, “Antidepressant cycloalkylamine derivatives of heterocycle-fused benzodioxans” (Wyeth, priority 2002, dated 2005) can be followed below.

For data set [1], the target named is T1, human 5HT1A receptors (Homo sapiens, UniProt P08908).
T1 construct: expressed in transfected cells; host or cells: CHO cells
T1 sequence (P08908 1-422): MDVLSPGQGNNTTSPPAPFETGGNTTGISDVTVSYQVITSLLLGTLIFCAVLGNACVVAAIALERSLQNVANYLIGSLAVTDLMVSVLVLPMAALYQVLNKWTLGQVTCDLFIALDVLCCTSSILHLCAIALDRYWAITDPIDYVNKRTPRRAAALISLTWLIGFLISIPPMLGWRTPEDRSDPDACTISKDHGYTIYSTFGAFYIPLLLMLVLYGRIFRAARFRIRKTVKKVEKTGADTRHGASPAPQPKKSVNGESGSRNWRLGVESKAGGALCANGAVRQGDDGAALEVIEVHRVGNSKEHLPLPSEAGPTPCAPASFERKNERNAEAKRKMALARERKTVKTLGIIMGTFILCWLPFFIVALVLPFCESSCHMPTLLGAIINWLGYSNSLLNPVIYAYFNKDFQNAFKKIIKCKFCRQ
In words: Displacement of [3H] 8-OH-DPAT from 5HT1A receptor in stably transfected CHO cells. The note with it: CHO cells with human 5HT1A receptors, read-out: 5HT1A Receptor Affinity Ki. Format: binding. From the text:
High affinity for the serotonin 5HT1A receptor was established by testing the claimed compound's ability to displace [^3H] 8-OH-DPAT (dipropylamino-tetralin) from the 5HT1A serotonin receptor following a modification of the procedure of Hall, et al., J. Neurochem. 44, 1685 (1985), which utilizes CHO cells stably transfected with human 5HT1A receptors.
Background: In a radioligand displacement assay an active substance lowers the binding of a labelled ligand.

Data set [2] deals with T2, serotonin transporter (Rattus norvegicus, UniProt P31652).
T2 construct: displace ^3H-paroxetine from male rat frontal cortical membranes; from tissue; host or cells: male rat frontal cortex membranes
T2 sequence (P31652 whole entry): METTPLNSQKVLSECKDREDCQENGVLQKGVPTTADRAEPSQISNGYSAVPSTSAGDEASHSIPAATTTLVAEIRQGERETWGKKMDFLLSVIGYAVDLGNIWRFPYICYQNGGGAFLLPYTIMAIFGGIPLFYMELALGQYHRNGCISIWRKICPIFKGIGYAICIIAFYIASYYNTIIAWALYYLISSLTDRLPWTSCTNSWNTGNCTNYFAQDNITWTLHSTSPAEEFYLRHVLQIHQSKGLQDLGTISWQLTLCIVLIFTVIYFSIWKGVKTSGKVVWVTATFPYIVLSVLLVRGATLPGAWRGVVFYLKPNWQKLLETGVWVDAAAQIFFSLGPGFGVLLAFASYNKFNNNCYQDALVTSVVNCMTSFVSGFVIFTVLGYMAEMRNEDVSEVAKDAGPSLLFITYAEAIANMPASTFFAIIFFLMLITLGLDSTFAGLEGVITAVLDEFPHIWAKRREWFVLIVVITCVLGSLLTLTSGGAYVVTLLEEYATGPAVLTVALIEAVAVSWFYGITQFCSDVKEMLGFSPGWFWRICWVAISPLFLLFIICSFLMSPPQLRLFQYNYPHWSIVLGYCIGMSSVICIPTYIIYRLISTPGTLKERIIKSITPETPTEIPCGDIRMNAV
In words: Displacement of 3H-paroxetine from male rat frontal cortical membranes (serotonin transporter affinity). It is filed as binding. Particulars: read-out: 5-HT Transporter Affinity Ki.

Data set [3] addresses T3, cloned human 5HT1A receptors (Homo sapiens, UniProt P08908).
T3 construct: expressed in transfected cells
T3 sequence (P08908 1-422): T1 sequence (P08908 1-422)
Briefly: 35S-GTPγS binding assay, membranes containing cloned human 5HT1A receptors. It is filed as biochemical. The note with it: for IC50: antagonist potency, reversal of the standard agonist 8-OH-DPAT, read-out: 5HT1A Function IC50; for 5HT1A Function (Imax): maximum inhibitory effect, value in parentheses; for EC50: given as EC50, increase in 35S-GTPγS binding (agonist), read-out: 5HT1A Function EC50; for Emax: given as Emax, agonist effect, read-out: 5HT1A Function Emax. Here is the method: Antagonist activity at 5HT1A receptors was established by using a ^35S-GTPγS binding assay similar to that used by Lazareno and Birdsall (Br. J. Pharmacol. 109:1120, 1993), in which the test compound's ability to affect the binding of ^35S-GTPγS to membranes containing cloned human 5HT1A receptors was determined. Agonists produce an increase in binding whereas antagonists produce no increase but rather reverse the effects of the standard agonist 8-OH-DPAT. The test compound's maximum inhibitory effect is represented as the Imax, while its potency is defined by the IC50.
For orientation: GTPγS resists hydrolysis and so accumulates on activated G proteins.

Counter-ions that a name gives are not always drawn.

As to `Cc1ccc2c3c(ccc2n1)OC[C@H](CN[C@H]1CC[C@@H](c2c[nH]c4ccc(F)cc42)CC1)O3` [Example 7, (cis)-N-[4-(5-fluoro-1H-indol-3-yl)cyclohexyl]-N-{[(2S)-8-methyl-2,3-dihydro[1,4]dioxino[2,3-f]quinolin-2-yl]methyl}amine], the inhibition constant (Ki) in data set [1] was 51.7 nM; in data set [2], 19 nM.

Regarding `Cc1ccc2c3c(ccc2n1)OC[C@H](CN[C@@H]1CC[C@@H](c2c[nH]c4ccc(F)cc24)C1)O3` (single isomer, unassigned) [Example 4-Isomer B, N-[(1R*,3R*)-3-(5-fluoro-1H-indol-3-yl)cyclopentyl]-N-{[(2S)-8-methyl-2,3-dihydro[1,4]dioxino[2,3-f]quinolin-2-yl]methyl}amine], the Ki in data set [1] was found to be 26.5 nM; in data set [2], 0.67 nM. Besides, the IC50 in data set [3] worked out at 1440 nM. In data set [3], the 5HT1A Function (Imax) amounted to 100%.

For `Cc1ccc2c3c(ccc2n1)OCC(CNC1CCC(c2cn(C)c4ccc(F)cc24)C1)O3` (single isomer, unassigned) [Example 5-Isomer A, N-[(1R*,3S*)-3-(5-fluoro-1-methyl-1H-indol-3-yl)cyclopentyl]-N-{](2S)-8-methyl-2,3-dihydro[1,41]dioxino[2,3-f]quinoli-2-yl]methyl}amine], the Ki in data set [1] came out at 12.5 nM. In addition, in data set [3], the IC50 was found to be 190 nM and the 5HT1A Function (Imax) came out at 88%. Also, in data set [2], the inhibitory constant (Ki) was determined as 2.11 nM.

On to `Cc1ccc2c3c(ccc2n1)OCC(CNC1CCC(c2c[nH]c4ccc(F)cc24)C1)O3` [Example 4, N-[(trans)-3-(5-fluoro-1H-indol-3-yl)cyclopentyl]-N-{[(2S)-8-methyl-2,3-dihydro[1,4]dioxino[2,3-f]quinoli-2-yl]methyl}amine], for which the values for the Ki in data set [1] and in data set [2] were 9.12 nM and 0.62 nM, respectively. For the same molecule, the IC50 in data set [3] was determined as 44 nM. For the same molecule, the 5HT1A Function (Imax) in data set [3] was found to be 84%.

As to `Cc1ccc2c3c(ccc2n1)OCC(CNC1CCC(c2cn(C)c4ccc(F)cc24)C1)O3` (single isomer, unassigned) [Example 5-Isomer B, N-[(1S*,3R*)-3-(5-fluoro-1-methyl-1H-indol-3-yl)cyclopentyl]-N-{[(2S)-8-methyl-2,3-dihydro[1,4]dioxino[2,3-f]quinoli-2-yl]methyl}amine], in data set [1], the Ki came to 1.91 nM. In data set [3], the IC50 worked out at 158 nM and the 5HT1A Function (Imax) amounted to 97%. Also, the Ki in data set [2] was determined as 3 nM.

Take `Cc1ccc2c3c(ccc2n1)OC[C@H](CN[C@H]1CC[C@@H](c2c[nH]c4ccc(F)cc24)C1)O3` (mixture of isomers) [Example 3, N-[(cis)-3-(5-fluoro-1H-indol-3-yl)cyclopentyl]-N-{[(2S)-8-methyl-2,3-dihydro[1,4]dioxino[2,3-f]quinolin-2-yl]methyl}amine]: the Ki in data set [1] came out at 4.73 nM. In addition, in data set [3], the IC50 came out at 83 nM and the 5HT1A Function (Imax) is 100%. Also, in data set [2], the inhibitory constant (Ki) turned out to be 0.93 nM.

Turning to `Cc1ccc2c3c(ccc2n1)OCC(CNC1CCC(c2cn(C)c4ccc(F)cc24)C1)O3` (single isomer, unassigned) [Example 6], in data set [1], the Ki was found to be 20.3 nM. In data set [3], the IC50 amounted to 228 nM and the 5HT1A Function (Imax) worked out at 55%. Further, the inhibition constant Ki in data set [2] amounted to 1.67 nM.

For `Cc1ccc2c3c(ccc2n1)OC[C@H](CN[C@H]1CC[C@H](c2c[nH]c4ccc(F)cc24)C1)O3` (single isomer, unassigned) [Example 4-Isomer A, N-[(1S*,3S*)-3-(5-fluoro-1H-indol-3-yl)cyclopentyl]-N-{[(2S)-8-methyl-2,3-dihydro[1,4]dioxino[2,3-f]quinolin-2-yl]methyl}amine], the inhibitory constant (Ki) in data set [1] was 7.72 nM. Moreover, in data set [3], the IC50 was 60 nM and the 5HT1A Function (Imax) is 56%. The Ki in data set [2] was found to be 0.54 nM.

`Cc1ccc2c3c(ccc2n1)OCC(CNC1CCC(c2cn(C)c4ccc(F)cc24)C1)O3` (single isomer, unassigned) (as salt: fumarate) [Example 5] yielded a melting point of 200 to 201 °C.

In the case of `Cc1ccc2c3c(ccc2n1)OCC(CNC1CCC(c2c[nH]c4ccc(F)cc24)C1)O3` (single isomer, unassigned) [Example 3-Isomer B, N-[(1S*,3R*)-3-(5-fluoro-1H-indol-3-yl)cyclopentyl]-N-{[(2S)-8-methyl-2,3-dihydror[1,4]dioxino[2,3-f]quinolin-2-yl]methyl}amine], the Ki in data set [1] was 2.03 nM; in data set [2], 0.33 nM. The IC50 in data set [3] came out at 34 nM. The 5HT1A Function (Imax) in data set [3] was 97%.

As for `Cc1ccc2c3c(ccc2n1)OCC(CNC1CCC(c2cn(C)c4ccc(F)cc24)C1)O3` (single isomer, unassigned) [Example 5], the Ki in data set [1] amounted to 5.35 nM. In data set [3], the IC50 was determined as 142 nM and the 5HT1A Function (Imax) stood at 69%. The Ki in data set [2] was determined as 3.69 nM.

As to `Cc1ccc2c3c(ccc2n1)OC[C@H](CN[C@@H]1CC[C@H](c2c[nH]c4ccc(F)cc24)C1)O3` (single isomer, unassigned) [Example 3-Isomer A, N-[(1R*,3S*)-3-(5-fluoro-1H-indol-3-yl)cyclopentyl]-N-{[(2S)-8-methyl-2,3-dihydro[1,4]dioxino[2,3-f]quinolin-2-yl]methyl}amine], in data set [1], the Ki was 8.73 nM. In addition, in data set [3], the IC50 amounted to 69 nM and the 5HT1A Function (Imax) was found to be 82%. In addition, in data set [2], the Ki stood at 0.38 nM.

For `Cc1ccc2c3c(ccc2n1)OC[C@H](CN[C@H]1CC[C@@H](c2c[nH]c4ccccc24)C1)O3` (mixture of isomers) [Example 1, N-[(cis)-3-(1H-indol-3-yl)cyclopentyl]-N-{[(2S)-8-methyl-2,3-dihydro[1,4]dioxino[2,3-f]quinolin-2-yl]methyl}amine], the Ki in data set [1] came out at 2.56 nM. In data set [3], the EC50 worked out at 33 nM and the Emax was 38%. In addition, in data set [2], the Ki worked out at 1.25 nM.

For `Cc1ccc2c3c(ccc2n1)OC[C@H](CN[C@H]1CC[C@H](c2c[nH]c4ccc(F)cc42)CC1)O3` [Example 8, (trans)-N-[4-(5-fluoro-1H-indol-3-yl)cyclohexyl]-N-{[(2S)-8-methyl-2,3-dihydro[1,4]dioxino[2,3-f]quinolin-2-yl]methyl}amine], in data set [1], the Ki worked out at 14.6 nM. In data set [3], the EC50 came out at 66 nM and the Emax was determined as 95%. In addition, the Ki in data set [2] was 4.16 nM.

In the case of `Cc1ccc2c3c(ccc2n1)OC[C@H](CN(C)[C@@H]1CC[C@H](c2c[nH]c4ccc(F)cc24)C1)O3` (relative stereo) [Example 13, N-[(1R*,3S*)-3-(5-fluoro-1H-indol-3-yl)cyclopentyl]-N-methyl-N-{[(2S)-8-methyl-2,3-dihydro[1,4]dioxino[2,3-f]quinolin-2-yl]methyl}amine], the Ki in data set [1] was 18.8 nM; in data set [2], 5.45 nM. The concentration for half-maximal inhibition (IC50) in data set [3] was determined as 494 nM. The 5HT1A Function (Imax) in data set [3] was found to be 100%.

On to `Cc1ccc2c3c(ccc2n1)OC[C@H](CN(C)[C@@H]1CC[C@H](c2c[nH]c4ccc(F)cc24)C1)O3` (relative stereo) (as salt: fumarate) [Example 13, N-[(1R*,3S*)-3-(5-fluoro-1H-indol-3-yl)cyclopentyl]-N-methyl-N-{[(2S)-8-methyl-2,3-dihydro[1,4]dioxino[2,3-f]quinolin-2-yl]methyl}amine], for which the melting point was 198 to 199 °C (dec.).

For the molecule `Cc1ccc2c3c(ccc2n1)OC[C@H](CN(C)[C@H]1CC[C@@H](c2c[nH]c4ccc(F)cc24)C1)O3` (mixture of isomers) [Example 9, N-[(cis)-3-(5-fluoro-1H-indol-3-yl)cyclopentyl]-N-methyl-N-{[(2S)-8-methyl-2,3-dihydro[1,4]dioxino[2,3-f]quinolin-2-yl]methyl}amine], the Ki in data set [1] stood at 5.01 nM; in data set [2], 0.84 nM. In addition, the IC50 in data set [3] amounted to 242 nM. Besides, in data set [3], the 5HT1A Function (Imax) was 100%.

Turning to `Cc1ccc2c3c(ccc2n1)OCC(CNC1CCC(c2c[nH]c4ccccc24)C1)O3` [Example 2, N-[(trans)-3-(1H-indol-3-yl)cyclopentyl]-N-{[(2S)-8-methyl-2,3-dihydro[1,4]dioxino[2,3-f]quinoli-2-yl]methyl}amine], the figures for the Ki in data set [1] and in data set [2] were 12.8 nM and 1.69 nM, respectively.

Usually Ki stands for a measure of affinity in units of concentration, obtained from inhibition or displacement. A word on the IC50: it is the point on the concentration scale where inhibition reaches its midpoint. The term melting point denotes the temperature, or range, at which the solid turns liquid. By EC50 is commonly meant the midpoint of the concentration-response curve. A word on the Emax: it is the size of the effect at its maximum, as opposed to the concentration needed.
